Structures can show the parent of a compound that is named as a salt.
System: test species shown in Table C (common weeds)
Experiment: Herbicidal efficacy, glasshouse, all test species of Table C
Assay type: in vivo
Conditions: adjuvant alone, experiments 26d to 29d

| Compound | herbicidal effects in the absence of any active ingredient |
| --- | --- |
| CCCCOC(=O)CC(CC(=O)OCCCC)(OC(C)=O)C(=O)OCCCC [O-acetyl tri-n-butyl citrate] | no herbicidal effects |
| CCCCOC(=O)CC(O)(CC(=O)OCCCC)C(=O)OCCCC [tri-n-butyl citrate] | no herbicidal effects |

— patent US6551964B1, “Use of citric acid derivatives as pesticidal adjuvants” (Bayer Cropscience S.A., priority 1998, dated 2003)
